Data from US4430324A (priority 1982, dated 1984).
Where two headings read alike, the source gives them in different places.

Experiments:
[1] = tested on: S. sanguis 10556; conditions: for IC50: read-out: ID/50; for ID/50 (recalculated as ppm F): 1440 min
[2] = tested on: S. salivarius SS4; conditions: for IC50: read-out: ID/50; for ID/50 (recalculated as ppm F): 1440 min
[3] = tested on: S. mutans OMZ-176; conditions: for IC50: read-out: ID/50; for ID/50 (recalculated as ppm F): 1440 min
[4] = tested on: S. mutans 6715; conditions: for IC50: read-out: ID/50; for ID/50 (recalculated as ppm F): 1440 min
[5] = tested on: L. casei; conditions: for IC50: read-out: ID/50; for ID/50 (recalculated as ppm F): 1440 min
[6] = tested on: S. sanguis 10557; conditions: for IC50: read-out: ID/50; for ID/50 (recalculated as ppm F): 1440 min
[7] = tested on: S. salivarius H-257; conditions: for IC50: read-out: ID/50; for ID/50 (recalculated as ppm F): 1440 min
[8] = tested on: artificial plaque; test: in vitro antiplaque study; assay type: cell-based, clinical plaque samples; conditions: for Percentage Inhibition of Growth of Artificial Plaque: means ±95% confidence limits
Procedure: The in vitro plaque was initiated on uniformly sized aluminum plummets which were previously coated for 20 min. with wax stimulated whole saliva. These coated plummets were then placed in a Trypticase (B.B.L.) 1% sucrose growth medium inoculated with clinical plaque samples. After 5 hours of incubation at 37° C. the plummets were immersed in a solution containing equal volumes of whole saliva and the test compound for one minute and subsequently suspended overnight (37° C.) in a 20% solution of saliva supernatant. On the second day the plummets were retreated with the test solution (1 min.) and reincubated in inoculated Trypticase-sucrose growth medium for 5 hours. After this period of time the plaques were rinsed in distilled water for 5 minutes. The plaques were then removed from the plummets by sonication in 10 ml distilled water and quantitated in a Unicam SP500 spectrophotometer at 570 nm.
Five replicas per test compound were examined.

[9] = tested on: cariogenic bacteria; test: inhibition of bacterial growth, overall findings; conditions: all bacterial isolates tested
[10] = pH of solution; assay type: physicochemical

Compound: Al2 (SO4)3
- IC50 [1]: 5550 µM
- IC50 [2]: 7.8 mM
- IC50 [3]: 5.91 mM
- IC50 [4]: 3.56 mM
- IC50 [5]: 6.45 mM
- IC50 [6]: 8.45 mM
- IC50 [7]: 5400 µM

Compound: O=S(=O)([O-])[O-].[Zn+2] [ZnSO4]
- IC50 [1]: 360 µM
- antiplaque activity ([8]; 6.0-30.0 mM/L zinc): no difference in activity between ZnSO4 and ZnNH4 F3
- Percentage Inhibition of Growth of Artificial Plaque ([8]; zinc conc. 6.0 mM/L): 47 ± 14%
- Percentage Inhibition of Growth of Artificial Plaque ([8]; zinc conc. 15.0 mM/L): 51 ± 14%
- Percentage Inhibition of Growth of Artificial Plaque ([8]; zinc conc. 30.0 mM/L): 64 ± 14%
- IC50 [2]: 6 mM
- IC50 [3]: 7.5 mM
- IC50 [4]: 5.74 mM
- IC50 [5]: 10.4 mM
- IC50 [6]: 0.4 mM
- IC50 [7]: 750 µM

Compound: [Ca] [Ca]
- inhibition of bacterial growth [9]: little or no effect

Compound: [Mn] [Mn]
- inhibition of bacterial growth [9]: little or no effect

Compound: [Mg] [Mg]
- inhibition of bacterial growth [9]: little or no effect

Compound: [Cl][Sn][Cl] [SnCl2]
- IC50 [1]: 1270 µM
- IC50 [2]: 1.45 mM
- IC50 [3]: 3.68 mM
- IC50 [4]: 2.26 mM
- IC50 [5]: 3 to 6 mM
- IC50 [6]: 1.88 mM
- IC50 [7]: 3640 µM

Compound: [Cl-].[Na+] [Na]
- inhibition of bacterial growth [9]: little or no effect

Compound: SnF2
- ID/50 (recalculated as ppm F) [1]: 17
- IC50 [1]: 440 µM
- ID/50 (recalculated as ppm F) [2]: 93
- IC50 [2]: 2.45 mM
- ID/50 (recalculated as ppm F) [3]: 87
- IC50 [3]: 2.28 mM
- % Reduction in Dissolution (pH 4): 57%
- % Reduction in Dissolution (pH 5): 54%
- % Reduction in Dissolution (pH 6): 45%
- % Reduction in Dissolution (pH 7): 43%
- ID/50 (recalculated as ppm F) [4]: 56
- IC50 [4]: 1.5 mM
- ID/50 (recalculated as ppm F) [5]: 113
- IC50 [5]: 2.97 mM
- ID/50 (recalculated as ppm F) [6]: 32
- IC50 [6]: 0.84 mM
- ID/50 (recalculated as ppm F) [7]: 29
- IC50 [7]: 740 µM

Compound: N.N.[F-].[F-].[F-].[F-].[F-].[F-].[Sn] [Sn(NH4)2 F6, stannic ammonium fluoride]
- ID/50 (recalculated as ppm F) ([1]; Table III, S. sanguis 10556): 25 ppm F
- IC50 ([1]; Table II, fluoride salts, S. sanguis 10556, means of triplicate experiments): 220 µM
- ID/50 (recalculated as ppm F) ([2]; Table III, S. salivarius SS4): 188 ppm F
- IC50 ([2]; Table II, fluoride salts, S. salivarius SS4, means of triplicate experiments): 1.65 mM
- ID/50 (recalculated as ppm F) ([3]; Table III, S. mutans OMZ-176): 163 ppm F
- IC50 ([3]; Table II, fluoride salts, S. mutans OMZ-176, means of triplicate experiments): 1.43 mM
- inhibition of bacterial growth [9]: less active than the stannous form SnF2
- ID/50 (recalculated as ppm F) ([4]; Table III, S. mutans 6715): 137 ppm F
- IC50 ([4]; Table II, fluoride salts, S. mutans 6715, means of triplicate experiments): 1.2 mM
- pH values in solution [10]: ~3.8
- ID/50 (recalculated as ppm F) ([5]; Table III, L. casei): 288 ppm F
- IC50 ([5]; Table II, fluoride salts, L. casei, means of triplicate experiments): 2.53 mM
- ID/50 (recalculated as ppm F) ([6]; Table III, S. sanguis 10557): 45 ppm F
- IC50 ([6]; Table II, fluoride salts, S. sanguis 10557, means of triplicate experiments): 0.39 mM
- ID/50 (recalculated as ppm F) ([7]; Table III, S. salivarius H-257): 46 ppm F
- IC50 ([7]; Table II, fluoride salts, S. salivarius H-257, means of triplicate experiments): 400 µM

Compound: [Cl-].[Cl-].[Co+2] [CoCl2]
- IC50 [1]: 2890 µM
- IC50 [2]: 5.96 mM
- IC50 [3]: 10.6 mM
- IC50 [4]: 7.72 mM
- IC50 [5]: > 12 mM
- IC50 [6]: 3.84 mM
- IC50 [7]: 550 µM

Compound: [Fe] [Fe]
- inhibition of bacterial growth [9]: little or no effect
